Laboratory results as given in article PMC11596928, “Substrate-Induced Structural Dynamics and Evolutionary Linkage of Siderophore-Iron ABC Transporters of Mycobacterium tuberculosis” (Medicina, 2024).

Molecular target: ATPase II (rATPase II), ATPase domain of IrtB (Mycobacterium tuberculosis, UniProt P9WQJ7)
Sequence (P9WQJ7 313-579): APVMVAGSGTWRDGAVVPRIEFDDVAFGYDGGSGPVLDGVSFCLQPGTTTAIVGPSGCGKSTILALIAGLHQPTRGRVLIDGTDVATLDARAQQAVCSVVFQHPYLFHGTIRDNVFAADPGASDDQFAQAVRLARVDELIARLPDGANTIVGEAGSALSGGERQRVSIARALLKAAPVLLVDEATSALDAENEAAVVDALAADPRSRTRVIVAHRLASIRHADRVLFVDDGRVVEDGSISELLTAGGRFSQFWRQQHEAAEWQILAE

Nc1ncnc2c1ncn2[C@@H]1O[C@H](COP(=O)(O)OP(=O)(O)OP(=O)(O)O)[C@@H](O)[C@H]1O [ATP] was tested, and the “analytical gel filtration (ATP-dependent dimerization)” value was “ATPase II (the ATPase belonging to IrtB) dimers were captured as stable dimers”.
